The text below walks through data of patent US20260167656A1, “PHOSPHORAMIDATE COMPOUNDS AND USES THEREOF” (ALLORION THERAPEUTICS INC, priority 2022, published 2026).

Some results are limits rather than exact numbers.

Test [1] relates to non-small cell lung cancer cell line H460. The test can be described thus: In vitro human cancer cell line cytotoxicity (proliferation) assay in H460, CellTiter-Glo, 72 hours. Format: cell-based. As to conditions: H460 cells, DMSO condition (no AKR1C3 inhibitor), read-out: CTG H460: Avg IC50 (nM) [Assay Condition: DMSO]. The protocol: Biological Example 1. In Vitro Human Cancer Cell Line Cytotoxicity Assay
IC50 values in nanomolar reported here were derived from in vitro proliferation assay data in non-small cell lung cancer cell line H460.
(§1) Specifically, exponentially growing cells were seeded at density of 3×10^3 cells per well in 96-well plate and incubated at 37° C. in 5% CO2, 95% air and 100% relative humidity for 24 hours before adding compounds. Compounds were solubilized in 100% DMSO at 10 mM. Compounds were added to the plate using Tecan D300e® digital Dispenser. After drug addition, the plates were incubated for an additional 72 hours at 37° C. in 5% CO2, 95% air and 100% relative humidity. At the end of the incubation, cell viability was quantified with CellTiter-Glo® assay.
A general note: In ATP-based viability assays light output follows the ATP content of the culture.

The test system is the same in test [2]. The test can be described thus: H460 proliferation assay in the presence of 3 uM ASP9521 (AKR1C3 specific inhibitor). The test is classed as cell-based, human. As to conditions: H460 cells, CellTiter-Glo, 72 hours, in the presence of 3 uM ASP9521 added 4 hours prior to compounds; read-out: CTG H460: Avg IC50 (nM) [Assay Condition: ASP9521]. The protocol: as §1
To further confirm that compounds were activated by human AKR1C3, H460 proliferation assay were also performed in the presence of 3 uM […], an AKR1C3 specific inhibitor. ASP9521 were added to the plates 4 hours prior to the addition of compounds.

The IC50 is the midpoint of a concentration-inhibition curve. Regarding `CN(C)C(=O)c1cc(Oc2c([N+](=O)[O-])ccc3c2CCC3OP(=O)(N2CC2)N2CC2)ccn1` (racemic) [Example 253], the results for the IC50 in test [1] and in test [2] were under 10 nM and 697 nM, respectively.
As to `COc1ccc(Oc2c([N+](=O)[O-])ccc3c2CC[C@@H]3OP(=O)(N2CC2)N2CC2)cc1-c1ncccn1` [Example 294, (S)-4-(4-methoxy-3-(pyrimidin-2-yl)phenoxy)-5-nitro-2,3-dihydro-1H-inden-1-yl di(aziridin-1-yl)phosphinate], the IC50 was under 10 nM in test [1] (Homo sapiens, NCI-H460, 72 h) and 1080 nM in test [2].
`O=C1OCCN1c1ccc(Oc2cc3c(cc2[N+](=O)[O-])CCC3OP(=O)(N2CC2)N2CC2)cc1` (stereo not drawn) [Example 165]: the IC50 is under 10 nM in test [1] and 89.7 nM in test [2].
With `O=[N+]([O-])c1ccc2c(c1Oc1ccc(C(F)(F)F)nc1)CCC2OP(=O)(N1CC1)N1CC1` (stereo not drawn) [Example 25], the IC50 in test [1] (Homo sapiens, NCI-H460, 72 h) is under 10 nM; in test [2], 92.9 nM.
With `CC(C)(C)c1cncc(Oc2c([N+](=O)[O-])ccc3c2CCC3OP(=O)(N2CC2)N2CC2)c1` (racemic) [Example 324], the IC50 is under 10 nM in test [1] and 445 nM in test [2].
Consider `Cn1cc(-c2ccc(Oc3cc4c(cc3[N+](=O)[O-])CCC4OP(=O)(N3CC3)N3CC3)cc2)cn1` (stereo not drawn) [Example 180], for which the IC50 was under 10 nM in test [1] (Homo sapiens, NCI-H460, 72 h) and 1950 nM in test [2].
For the molecule `O=[N+]([O-])c1cc2c(cc1Oc1ccc(-c3ccccn3)cc1)C(OP(=O)(N1CC1)N1CC1)CC2` (stereo not drawn) [Example 517], the IC50 in test [1] was under 10 nM; in test [2] it was 2050 nM.
As to `CSc1ccc(Oc2c([N+](=O)[O-])ccc3c2CCC3OP(=O)(N2CC2)N2CC2)cc1` (stereo not drawn) [Example 505], the half-maximal inhibitory concentration (IC50) in test [1] is under 10 nM; in test [2] it was 327 nM.
As for `O=[N+]([O-])c1ccc2c(c1Oc1cccc(-c3c(F)cnn3CCO)c1)CC[C@@H]2OP(=O)(N1CC1)N1CC1` [Example 371], the IC50 in test [1] (Homo sapiens, NCI-H460, 72 h) was under 10 nM; in test [2] it was 591 nM.
With `O=C(NC1CC1)c1ccc(Oc2c([N+](=O)[O-])ccc3c2CCC3OP(=O)(N2CC2)N2CC2)cc1` (stereo not drawn) [Example 72], the IC50 in test [1] was 50 to 100 nM; in test [2] it was 1390 nM.
Turning to `COc1ccc(Oc2c([N+](=O)[O-])ccc3c2CC[C@@H]3OP(=O)(N2CC2)N2CC2)cc1OCC1CC1` [Example 502], the IC50 in test [1] (Homo sapiens, NCI-H460, 72 h) was under 10 nM; in test [2] it was 546 nM.
In the case of `Cn1c(-c2cccc(Oc3c([N+](=O)[O-])ccc4c3CCC4OP(=O)(N3CC3)N3CC3)c2)cccc1=O` (stereo not drawn) [Example 75], the concentration for half-maximal inhibition (IC50) in test [1] is 10 to 50 nM; in test [2], 2720 nM.
As for `Cn1cnc(-c2cccc(Oc3c([N+](=O)[O-])ccc4c3CCC4OP(=O)(N3CC3)N3CC3)c2)cc1=O` (stereo not drawn) [Example 117], the IC50 is at least 100 nM in test [1] and 1030 nM in test [2].
The matching figures for `O=[N+]([O-])c1ccc2c(c1Oc1cccc(OC3COC3)c1)CCC2OP(=O)(N1CC1)N1CC1` (racemic) [Example 465]: under 10 nM and 705 nM.
With `Cn1cc(Oc2c([N+](=O)[O-])ccc3c2CCC3OP(=O)(N2CC2)N2CC2)ccc1=O` (stereo not drawn) [Example 509], the IC50 is under 10 nM in test [1] and 844 nM in test [2].
On to `CN(C(=O)c1cccc(Oc2c([N+](=O)[O-])ccc3c2CCC3OP(=O)(N2CC2)N2CC2)c1)c1ccccn1` (stereo not drawn) [Example 247], for which the IC50 was under 10 nM in test [1] and 764 nM in test [2].
`Cn1cc2ccc(Oc3c([N+](=O)[O-])ccc4c3CC[C@@H]4OP(=O)(N3CC3)N3CC3)cc2n1` [Example 399]: the IC50 in test [1] was under 10 nM; in test [2], 1110 nM.
Turning to `COc1ccc(Oc2c([N+](=O)[O-])ccc3c2CCC3OP(=O)(N2CC2)N2CC2)cc1OC1CC1` (stereo not drawn) [Example 483], the IC50 in test [1] was under 10 nM; in test [2] it was 735 nM.
Regarding `O=[N+]([O-])c1ccc2c(c1Oc1ccc(F)c(OCC(F)(F)F)c1)CC[C@@H]2OP(=O)(N1CC1)N1CC1` [Example 494], the IC50 in test [1] (Homo sapiens, NCI-H460, 72 h) was under 10 nM; in test [2], 160 nM.
As for `O=[N+]([O-])c1ccc2c(c1Oc1ccc(-c3ncc(F)cn3)c(F)c1)CC[C@H]2OP(=O)(N1CC1)N1CC1` [Example 269, (R)-4-(3-fluoro-4-(5-fluoropyrimidin-2-yl)phenoxy)-5-nitro-2,3-dihydro-1H-inden-1-yl di(aziridin-1-yl)phosphinate], the IC50 is 10 to 50 nM in test [1] (Homo sapiens, NCI-H460, 72 h) and 761 nM in test [2].
As for `O=C(NC1CC1)c1ccc(Oc2cc3c(cc2[N+](=O)[O-])CCC3OP(=O)(N2CC2)N2CC2)cc1` (single isomer, unassigned) [Example 173], the IC50 is under 10 nM in test [1] and 2980 nM in test [2].
Consider `C[C@H]1CN1P(=O)(OC(c1ccc([N+](=O)[O-])c(Oc2cccc(C(=O)N(C)C)c2)c1)C(F)(F)F)N1C[C@@H]1C` (single isomer, unassigned) [Example 225], for which the IC50 in test [1] (Homo sapiens, NCI-H460, 72 h) was 50 to 100 nM; in test [2] it was 9530 nM.
For the molecule `Cn1cc(-c2cccc(Oc3c([N+](=O)[O-])ccc4c3CCC4OP(=O)(N3CC3)N3CC3)c2)cn1` (single isomer, unassigned) [Example 77], the IC50 in test [1] was under 10 nM; in test [2] it was 1890 nM.
Consider `O=[N+]([O-])c1ccc2c(c1Oc1ccc(-c3ncc(F)cn3)c(F)c1)CC[C@@H]2OP(=O)(N1CC1)N1CC1` [Example 268, (S)-4-(3-fluoro-4-(5-fluoropyrimidin-2-yl)phenoxy)-5-nitro-2,3-dihydro-1H-inden-1-yl di(aziridin-1-yl)phosphinate], for which the IC50 was under 10 nM in test [1] (Homo sapiens, NCI-H460, 72 h) and 1110 nM in test [2].
For `O=[N+]([O-])c1ccc2c(c1Oc1cncc(OC3CC3)c1)CC[C@@H]2OP(=O)(N1CC1)N1CC1` [Example 471], the IC50 is under 10 nM in test [1] and 3060 nM in test [2].
As to `CN1Cc2cc(Oc3c([N+](=O)[O-])ccc4c3CCC4OP(=O)(N3CC3)N3CC3)ccc2C1=O` (single isomer, unassigned) [Example 42], the IC50 in test [1] (Homo sapiens, NCI-H460, 72 h) is under 10 nM; in test [2], 123 nM.
For the molecule `O=[N+]([O-])c1cc2oc(COP(=O)(N3CC3)N3CC3)cc2cc1Oc1cccc(-c2cccnc2)c1` [Example 537], the IC50 was under 10 nM in test [1] (Homo sapiens, NCI-H460, 72 h) and 3710 nM in test [2].
Regarding `O=[N+]([O-])c1ccc2c(c1Oc1ccc(-c3ccc(F)cc3)c(F)c1)CCC2OP(=O)(N1CC1)N1CC1` (single isomer, unassigned) [Example 28], the IC50 was under 10 nM in test [1] and 870 nM in test [2].
On to `O=[N+]([O-])c1cc2c(cc1Oc1ccc(-c3ccc(F)cc3)cc1)C(OP(=O)(N1CC1)N1CC1)CC2` (stereo not drawn) [Example 144], for which the IC50 in test [1] (Homo sapiens, NCI-H460, 72 h) is under 10 nM; in test [2] it was 347 nM.
Consider `O=C1OCCN1c1ccc(Oc2cc3c(cc2[N+](=O)[O-])CCC3OP(=O)(N2CC2)N2CC2)cc1` (stereo not drawn) [Example 164], for which the IC50 is under 10 nM in test [1] (Homo sapiens, NCI-H460, 72 h) and 237 nM in test [2].
As for `CS(=O)(=O)c1ccc(Oc2c([N+](=O)[O-])ccc3c2CCC3OP(=O)(N2CC2)N2CC2)cc1` (stereo not drawn) [Example 504], the IC50 in test [1] is under 10 nM; in test [2], 288 nM.
Consider `Cn1cc(-c2cccc(Oc3c([N+](=O)[O-])ccc4c3CCC4OP(=O)(N3CC3)N3CC3)c2)cn1` (stereo not drawn) [Example 300], for which the IC50 in test [1] was under 10 nM; in test [2] it was 1890 nM.
`O=[N+]([O-])c1ccc2c(c1Oc1cc(F)cc(-c3ncccn3)c1)CC[C@@H]2OP(=O)(N1CC1)N1CC1` [Example 356]: the 50% inhibitory concentration (IC50) in test [1] (Homo sapiens, NCI-H460, 72 h) was under 10 nM; in test [2], 1990 nM.
